Test results published in CN106581687A, “以乳清蛋白为基质的桃柁酚抗菌纳米水凝胶及其制备方法” (Jilin University, priority 2016, dated 2017).
≈ marks a conversion by molar mass, not a printed value.

Tested on: Staphylococcus aureus (金黄色葡萄球菌), S.aureus strains ATCC 29213
Assay: 最小抑菌浓度MIC (minimum inhibitory concentration of totarol)
Format: cell-based
Details: value used for loading in the Example concerned

- MIC (Staphylococcus aureus, ATCC29213, totarol against Staphylococcus aureus): 2 µg/mL (≈ 6.98 µM)
- minimum inhibitory concentration (MIC value) (totarol against Staphylococcus aureus): 4 µg/mL (≈ 14 µM)
Compound: CC(C)c1c(O)ccc2c1CC[C@H]1C(C)(C)CCC[C@]21C [桃柁酚, 桃柁酚(Totarol)]
